Reference: US20080114020A1, “Difluoro-Substituted Imidazopyridines” (Altana Pharma AG, priority 2004, published 2008)

The compounds below were run on pentagastrin-stimulated acid secretion of the perfused rat stomach. Conditions: anesthetized CD rat, female; dose 1 μmol/kg i.d. (intraduodenal); pentagastrin 1 μg/kg i.v. infusion.
Experimental: The abdomen of anesthetized rats (CD rat, female, 200-250 g; 1.5 g/kg i.m. urethane) was opened after tracheotomy by a median upper abdominal incision and a PVC catheter was fixed transorally in the esophagus and another via the pylorus such that the ends of the tubes just projected into the gastric lumen. The catheter leading from the pylorus led outward into the right abdominal wall through a side opening.
After thorough rinsing (about 50-100 ml), warm (37° C.) physiological NaCl solution was continuously passed through the stomach (0.5 ml/min, pH 6.8-6.9; Braun-Unita I). The pH (pH meter 632, glass electrode EA 147; φ=5 mm, Metrohm) and, by titration with a freshly prepared 0.01 N NaOH solution to pH 7 (Dosimat 665 Metrohm), the secreted HCl were determined in the effluent in each case collected at an interval of 15 minutes.
The gastric secretion was stimulated by continuous infusion of […] (=1.65 ml/h) of i.v. pentagastrin (left femoral vein) about 30 min after the end of the operation (i.e. after determination of 2 preliminary fractions). The substances to be tested were administered intraduodenally in a 2.5 ml/kg liquid volume 60 min after the start of the continuous pentagastrin infusion. The body temperature of the animals was kept at a constant 37.8-38° C. by infrared irradiation and heat pads (automatic, stepless control by means of a rectal temperature sensor).
`CC(=O)OC1C(c2ccccc2)c2ccn3c(C)c(C)nc3c2OC1(F)F` [Example 2, (8R,9R)-8-Acetoxy-7,7-difluoro-2,3-dimethyl-9-phenyl-7H-8,9-dihydro-pyrano[2,3-c]imidazo[1,2-a]pyridine] was tested, and the “Inhibition of acid secretion (%)” value was greater than 85%.
For `COC(=O)O[C@@H]1[C@@H](c2ccccc2)Oc2c(ccn3c(C)c(C)nc23)C1(F)F` [Example 10, (8R,9R)-7,7-Difluoro-2,3-dimethyl-8-(methoxy-carbonyloxy)-9-phenyl-7H-8,9-dihydro-pyrano[2,3-c]imidazo[1,2-a]pyridine], the “Inhibition of acid secretion (%)” value was greater than 85%.
With `Cc1nc2c3c(ccn2c1C)C(c1ccccc1)C(OC(=O)CN(C)C)C(F)(F)O3` [Example 9, (8R,9R)-7,7-Difluoro-2,3-dimethyl-8-(2-dimethylamino-acetyloxy)-9-phenyl-7H-8,9-dihydro-pyrano[2,3-c]imidazo[1,2-a]pyridine] the “Inhibition of acid secretion (%)” value was greater than 85%.
For `COCC(=O)O[C@@H]1[C@@H](c2ccccc2)Oc2c(ccn3c(C)c(C)nc23)C1(F)F` [Example 8, (8R,9R)-7,7-Difluoro-2,3-dimethyl-8-(2-methoxy-acetyloxy)-9-phenyl-7H-8,9-dihydro-pyrano[2,3-c]imidazo[1,2-a]pyridine], the “Inhibition of acid secretion (%)” value was greater than 85%.
`Cc1nc2c3c(ccn2c1C)C(c1ccccc1)C(O)C(F)(F)O3` [Example 1, (8R,9R)-7,7-Difluoro-2,3-dimethyl-8-hydroxy-9-phenyl-7H-8,9-dihydro-pyrano[2,3-c]imidazo[1,2-a]pyridine] was tested, and the “Inhibition of acid secretion (%)” value was greater than 85%.
